In patent US7618816B2, “Metal-binding therapeutic peptides” (Ontherix, Inc., priority 2005, dated 2009):
“And” between values parts separate entries of the source, which are not always exact repeats. Equal values may be shown once. Where a SMILES comes first, the peptide text is derived from it. Where no end group is shown, it is not given here. The star is where a group is joined. Biotin = O=C1N[C@H]2[C@H](CS[C@H]2CCCCC(=O)*)N1

Assays:
CCRF-CEM = experiment: Cell survival, mutants of MDOKSH peptide; type: cell-based; conditions: for CELL SURVIVAL, CCRF-CEM: expressed relative to the activity of the parental peptide MDOKSH
Source text: (§1) In order to maximize the effects of cytotoxic peptides, alanine scanning of one peptide (MDOKSH) was undertaken as an illustration. 48 mutants were synthesized, purified and tested in CCRF-CEM and MCF-7. The cytotoxicity of the 48 peptides was strongly correlated in the two cell line assay systems (r=0.606). […] The core MBD sequence may, if desired, be excluded from the region to be explored by mutagenesis, in order to expedite the experiment.

MCF-7 [1] = experiment: Cell survival, mutants of MDOKSH peptide; type: cell-based; design: CELL SURVIVAL, MCF-7: unit not given here; conditions: for CELL SURVIVAL, MCF-7: expressed relative to the activity of the parental peptide MDOKSH
Source text: as §1

cancer cells = experiment: Selective cytotoxicity, cancer cells versus normal counterparts; type: cell-based, human
Source text: (§2) Also, peptides such as NFKB and CSK are of interest, targeting stress-coping mechanisms such as inflammation. The breast cancer lines tested are HS578T, MX-1, MDA-MB231, MDA-MB435 and MCF7. Leukemia cell lines tested for cytotoxicity effects with these MBD-tagged peptides are CCRF-CEM, RPMI-8226 and MOLT-4. Overall, MCF-7 and CCRF-CEM yield the most consistent data and the strongest effect across the board (Table 12). In addition, elevated levels of cytotoxicity are observed when multiple peptides are combined while keeping the overall amount of peptide added constant. Cytotoxicity increases with the number of peptides added per cocktail and is further enhanced by combining peptide cocktail treatment with paclitaxel.

MCF-7 [2] = experiment: Cytotoxicity of MBD therapeutic peptides; type: cell-based, human; conditions: relative to equal dose of control MBD peptide, only p < 0.05 shown, 1-4 experiments
Source text: as §2

MDA-MB231 = experiment: Cytotoxicity of MBD therapeutic peptides; type: cell-based, human; conditions: relative to equal dose of control MBD peptide, only p < 0.05 shown, 1-4 experiments
Source text: as §2

MOLT-4 = experiment: Cytotoxicity of MBD therapeutic peptides; type: cell-based, human; conditions: relative to equal dose of control MBD peptide, only p < 0.05 shown, 1-4 experiments
Source text: as §2

SR = experiment: Cytotoxicity of MBD therapeutic peptides; type: cell-based; conditions: relative to equal dose of control MBD peptide, only p < 0.05 shown, 1-4 experiments
MDA-MB435 = experiment: Cytotoxicity of MBD therapeutic peptides; type: cell-based; conditions: relative to equal dose of control MBD peptide, only p < 0.05 shown, 1-4 experiments
Source text: as §2

RPMI-8826 = experiment: Cytotoxicity of MBD therapeutic peptides; type: cell-based, human; conditions: relative to equal dose of control MBD peptide, only p < 0.05 shown, 1-4 experiments
Source text: as §2

[3] = system: shRNA containing the lambda nutR hairpin loop; experiment: Bio-KGF binding of shRNA on Ni-NTA plate, Ribogreen; conditions: for Ribogreen Fluorescence: mean of eight readings
Source text: Peptide Bio-KGF binds shRNA: Bio-KGF peptide was synthesized by Genemed Synthesis, Inc. (S. San Francisco, Calif.) as a 40-mer containing an MBD sequence and an RNA-hairpin binding domain from the N-terminus of bacteriophage lambda N protein: Bio-KGF: (“N”-terminal biotin) . . . KGF YKK KQC RPS KGR KRG FCW AQT RRR ERR AEK QAQ WKA A . . . (“C” terminus) (SEQ ID NO: 11)
An shRNA designed to silence the human beclin gene was designed to include a hairpin sequence corresponding to the NutR box of bacteriophage lambda mRNA (the binding target for the Bio-KGF peptide) and was amplified using the Silencer™ siRNA
Various molar excess amounts of Bio-KGF (ranging from 63 pg to 2 ug per well; similar results were obtained across this range) were attached to a Ni-NTA plate (Qiagen Inc., Carlsbad, Calif. for 1 hour and blocked overnight with 3% BSA at 4 degrees C. in the refrigerator, and washed with PBS/Tween and TE buffers. RNA dilutions were added in TE buffer, incubated for 30 min on shaker, then for 30 min on bench at room temperature. After one wash with TE buffer, Ribogreen reagent (Ribogreen RNA Quantitation Reagent and Kit from Molecular Probes/Invitrogen) was added to the wells, incubated 5 minutes, and fluorescence was read on a fluorescent plate reader. The results are listed in Table 8 (each number is a mean of eight readings): […]

CC(C)C[C@H](NC(=O)[C@H](CC(=O)O)NC(=O)[C@H](Cc1c[nH]c2ccccc12)NC(=O)[C@H](Cc1ccc(O)cc1)NC(=O)[C@H](CC(C)C)NC(=O)[C@@H]1CCCN1C(=O)[C@H](CCCCN)NC(=O)[C@H](Cc1c[nH]c2ccccc12)NC(=O)[C@H](CS)NC(=O)[C@H](Cc1ccccc1)NC(=O)CNC(=O)[C@H](CCCNC(=N)N)NC(=O)[C@H](CCCCN)NC(=O)[C@H](CCCNC(=N)N)NC(=O)CNC(=O)[C@H](CCCCN)NC(=O)[C@H](CO)NC(=O)[C@@H]1CCCN1C(=O)[C@H](CCCNC(=N)N)NC(=O)[C@H](CS)NC(=O)[C@H](CCC(N)=O)NC(=O)[C@H](CCCCN)NC(=O)[C@H](CCCCN)NC(=O)[C@H](CCCCN)NC(=O)[C@H](Cc1ccc(O)cc1)NC(=O)[C@H](Cc1ccccc1)NC(=O)CNC(=O)[C@H](CCCCN)NC(=O)[C@H](CCCCN)NC(=O)CCCC[C@@H]1SC[C@@H]2NC(=O)N[C@@H]21)C(=O)N[C@@H](Cc1ccc(O)cc1)C(=O)N[C@@H](CCC(=O)O)C(=O)O [MDOKSH] (Biotin-KKGFYKKKQCRPSKGRKRGFCWKPLYWDLYE-OH)
CELL SURVIVAL, CCRF-CEM (CCRF-CEM): 100
CELL SURVIVAL, MCF-7 (MCF-7 [1]): 100

CC(C)C[C@H](NC(=O)[C@H](C)NC(=O)[C@H](CCCCN)NC(=O)[C@H](Cc1c[nH]c2ccccc12)NC(=O)[C@H](CS)NC(=O)[C@H](Cc1ccccc1)NC(=O)CNC(=O)[C@H](CCCNC(=N)N)NC(=O)[C@H](CCCCN)NC(=O)[C@H](CCCNC(=N)N)NC(=O)CNC(=O)[C@H](CCCCN)NC(=O)[C@H](CO)NC(=O)[C@@H]1CCCN1C(=O)[C@H](CCCNC(=N)N)NC(=O)[C@H](CS)NC(=O)[C@H](CCC(N)=O)NC(=O)[C@H](CCCCN)NC(=O)[C@H](CCCCN)NC(=O)[C@H](CCCCN)NC(=O)[C@H](Cc1ccc(O)cc1)NC(=O)[C@H](Cc1ccccc1)NC(=O)CNC(=O)[C@H](CCCCN)NC(=O)[C@H](CCCCN)NC(=O)CCCC[C@@H]1SC[C@@H]2NC(=O)N[C@@H]21)C(=O)N[C@@H](Cc1ccc(O)cc1)C(=O)N[C@@H](Cc1c[nH]c2ccccc12)C(=O)N[C@@H](CC(=O)O)C(=O)N[C@@H](CC(C)C)C(=O)N[C@@H](Cc1ccc(O)cc1)C(=O)N[C@@H](CCC(=O)O)C(=O)O [Mutant 27] (Biotin-KKGFYKKKQCRPSKGRKRGFCWKALYWDLYE-OH)
Cytotoxicity versus parental MDOKSH (in words) (CCRF-CEM; CCRF-CEM): greatly enhanced cytotoxicity
Cytotoxicity versus parental MDOKSH (in words) (MCF-7 [1]; MCF-7): greatly enhanced cytotoxicity

CC(C)C[C@H](NC(=O)[C@H](CC(C)C)NC(=O)[C@H](CCCCN)NC(=O)[C@H](Cc1c[nH]c2ccccc12)NC(=O)[C@H](CC(C)C)NC(=O)[C@H](CC(=O)O)NC(=O)[C@H](CO)NC(=O)[C@H](Cc1ccccc1)NC(=O)[C@@H](NC(=O)[C@H](CCC(=O)O)NC(=O)CCCC[C@@H]1SC[C@@H]2NC(=O)N[C@@H]21)[C@@H](C)O)C(=O)N[C@@H](CCCCN)C(=O)N[C@@H](CCCCN)C(=O)NCC(=O)N[C@@H](Cc1ccccc1)C(=O)N[C@@H](Cc1ccc(O)cc1)C(=O)N[C@@H](CCCCN)C(=O)N[C@@H](CCCCN)C(=O)N[C@@H](CCCCN)C(=O)N[C@@H](CCC(N)=O)C(=O)N[C@@H](CS)C(=O)N[C@@H](CCCNC(=N)N)C(=O)N1CCC[C@H]1C(=O)N[C@@H](CO)C(=O)N[C@@H](CCCCN)C(=O)NCC(=O)N[C@@H](CCCNC(=N)N)C(=O)N[C@@H](CCCCN)C(=O)N[C@@H](CCCNC(=N)N)C(=O)NCC(=O)N[C@@H](Cc1ccccc1)C(=O)N[C@@H](CS)C(=O)N[C@@H](Cc1c[nH]c2ccccc12)C(=O)O [PEP-1] (Biotin-ETFSDLWKLLKKGFYKKKQCRPSKGRKRGFCW-OH)
Cytotoxic effect on cancer cells versus normal counterparts (in words) (cancer cells): strong cytotoxic effect on cancer cells but not their human counterparts

CC[C@H](C)[C@H](NC(=O)[C@H](CC(=O)O)NC(=O)[C@H](CO)NC(=O)[C@H](Cc1ccccc1)NC(=O)[C@@H](NC(=O)[C@H](CCC(=O)O)NC(=O)CCCC[C@@H]1SC[C@@H]2NC(=O)N[C@@H]21)[C@@H](C)O)C(=O)N[C@@H](Cc1c[nH]c2ccccc12)C(=O)N[C@@H](CCCCN)C(=O)N[C@@H](CC(C)C)C(=O)N[C@@H](CC(C)C)C(=O)N[C@@H](CCCCN)C(=O)N[C@@H](CCCCN)C(=O)NCC(=O)N[C@@H](Cc1ccccc1)C(=O)N[C@@H](Cc1ccc(O)cc1)C(=O)N[C@@H](CCCCN)C(=O)N[C@@H](CCCCN)C(=O)N[C@@H](CCCCN)C(=O)N[C@@H](CCC(N)=O)C(=O)N[C@@H](CS)C(=O)N[C@@H](CCCNC(=N)N)C(=O)N1CCC[C@H]1C(=O)N[C@@H](CO)C(=O)N[C@@H](CCCCN)C(=O)NCC(=O)N[C@@H](CCCNC(=N)N)C(=O)N[C@@H](CCCCN)C(=O)N[C@@H](CCCNC(=N)N)C(=O)NCC(=O)N[C@@H](Cc1ccccc1)C(=O)N[C@@H](CS)C(=O)N[C@@H](Cc1c[nH]c2ccccc12)C(=O)O [PEP-3] (Biotin-ETFSDIWKLLKKGFYKKKQCRPSKGRKRGFCW-OH)
% viability @ 48 hr/25 ug/ml peptide, MCF-7 (MCF-7 [2]): 27.5 ± 15.2% and 30.6 ± 5.7% and 21.7 ± 1.5%
% viability @ 48 hr/25 ug/ml peptide, MDA-MB231 (MDA-MB231): 32.9 ± 1.7%
% viability @ 48 hr/25 ug/ml peptide, MOLT-4 (MOLT-4): 73.0 ± 5.5% and 58.3 ± 16.5%
% viability @ 48 hr/25 ug/ml peptide, SR (SR): 75.9 ± 15.7%
% viability @ 48 hr/25 ug/ml peptide, MDA-MB435 (MDA-MB435): 16.0 ± 2.0% and 27.0 ± 3.9%
Cytotoxic effect on cancer cells versus normal counterparts (in words) (cancer cells): strong cytotoxic effect on cancer cells but not their human counterparts

AKGFYKKKQCRPSKGRKRGFCWKPLYWDLYE [Mutant 48]
CELL SURVIVAL, CCRF-CEM (CCRF-CEM): 71.8 ± 10.7
CELL SURVIVAL, MCF-7 (MCF-7 [1]): 61.6 ± 3.1

Biotin-KKGFYKKKQCRPSKGRKRGFCWARIDDMSSRIDDLEKNIADL (cysteines drawn unpaired) [M9HSBP1]
% viability @ 48 hr/25 ug/ml peptide, MOLT-4 (MOLT-4): 77.1 ± 20.3%
% viability @ 48 hr/25 ug/ml peptide, RPMI-8826 (RPMI-8826): 77.7 ± 5.2%

KGF YKK KQC RPS KGR KRG FCW AQT RRR ERR AEK QAQ WKA A (Biotin-KGFYKKKQCRPSKGRKRGFCWAQTRRRERRAEKQAQWKAA; cysteine pairing not given here) [Bio-KGF]
Binding of shRNA (in words) [3]: binds the shRNA
Ribogreen Fluorescence ([3]; 2.7 ng shRNA per well): 853 ± 600
Ribogreen Fluorescence ([3]; 5.5 ng shRNA per well): 2058 ± 781
Ribogreen Fluorescence ([3]; 11 ng shRNA per well): 6016 ± 2977
Ribogreen Fluorescence ([3]; 22 ng shRNA per well): 11924 ± 3650
Ribogreen Fluorescence ([3]; 44 ng shRNA per well): 42053 ± 12769
Ribogreen Fluorescence ([3]; 88 ng shRNA per well): 81819 ± 24656

KKGFYKKKQCRPSKGRKRGFCWAPLYWDLYE [Mutant 28]
CELL SURVIVAL, CCRF-CEM (CCRF-CEM): 60.1 ± 11.1
CELL SURVIVAL, MCF-7 (MCF-7 [1]): 52.7 ± 11.7

KKGFYKKKQCRPSKGRKRGFCWKPLYWALYE [Mutant 23]
CELL SURVIVAL, CCRF-CEM (CCRF-CEM): 74.5 ± 8.0
CELL SURVIVAL, MCF-7 (MCF-7 [1]): 58.8 ± 8.1

KKGFYKKKQCRPSKGRKRGFCWKPLYWDLYEI [Mutant 6]
CELL SURVIVAL, CCRF-CEM (CCRF-CEM): 62.3 ± 5.0
CELL SURVIVAL, MCF-7 (MCF-7 [1]): 68.5 ± 6.5

KKGFYKKKQCRPSKGRKRGFCWKPLYWDLYEM [Mutant 9]
CELL SURVIVAL, CCRF-CEM (CCRF-CEM): 63.8 ± 4.6
CELL SURVIVAL, MCF-7 (MCF-7 [1]): 56.8 ± 8.1

KKGFYKKKQCRPSKGRKRGFCWKPLYWDLYEP [Mutant 11]
CELL SURVIVAL, CCRF-CEM (CCRF-CEM): 64.8 ± 7.2
CELL SURVIVAL, MCF-7 (MCF-7 [1]): 59.6 ± 10.7
